Test results as given in ChEMBL document CHEMBL4619798, “Bioreducible Phosphonoamidate Pro-drug Inhibitor of Enolase: Proof of Concept Study” (ACS Med Chem Lett, 2020).

Experiments:
[1] = Cytotoxicity against human D423 cells with ENO1 deficient assessed as reduction in cell viability incubated for 5 days by crystal violet staining based spectrophotometry; conditions: 120 h
[2] = Stability in human plasma assessed as formation of monoester metabolite measured upto 22 hrs by NMR analysis; assay type: ADME, cell-free
[3] = Cytotoxicity against human D423 cells with ENO1 deficient assessed as reduction in cell viability incubated for 5 days in presence of 1 % oxygen by crystal violet staining based spectrophotometry; conditions: 120 h
[4] = Cytotoxicity against human D423 cells with ENO1 deficient assessed as reduction in cell viability incubated for 5 days in presence of 21 % oxygen by crystal violet staining based spectrophotometry; conditions: 120 h
[5] = Stability in human plasma assessed as formation of monoester metabolite measured at less than 30 mins by NMR analysis; assay type: ADME, cell-free; conditions: 0.5 h

SMILES | IC50 [1] [nM] | Stability [2] | IC50 [3] [nM] | IC50 [4] [nM] | Stability [5]
CC(C)(C)C(=O)OCOP(=O)(NCc1ccccc1)C1CCCN(O)C1=O (stereo unspecified) | 98 | – | – | – | –
CC(=O)ON1CCCC(P(=O)(NCc2ccccc2)OCc2ccc([N+](=O)[O-])o2)C1=O (stereo unspecified) | – | Stable | 136 | 299 | –
CC(C)(C)C(=O)OCOP(=O)(OCOC(=O)C(C)(C)C)C1CCCN(O)C1=O (stereo unspecified) | 38 | – | 201 | 79 | Unstable
O=C1C(P(=O)(O)O)CCCN1O (stereo unspecified) | 11800 | – | – | – | –
Cn1c(COP(=O)(NCCBr)NCCBr)cnc1[N+](=O)[O-] [EVOFOSFAMIDE] | – | – | 404 | 3200 | –
